Laboratory results: patent US9822118B2, “Bicyclic heteroaryl urea, thiourea, guanidine and cyanoguanidine compounds as TrkA kinase inhibitors” (Array BioPharma Inc., priority 2012, dated 2017)

Target: T1, recombinant human TrkA (Homo sapiens, UniProt P04629)
T1 construct: 6HIS tagged cytoplasmic domain from Invitrogen, Catalog No. PV3144; purchased Invitrogen PV3144
Assay: TrkA LanthaScreen Eu Kinase Binding Assay
Conditions: averaged IC50; TR-FRET binding assay, 60 min at 22° C.; read-out: TrkA Enzyme IC50
Method: TrkA binding activity was determined in a TrkA LanthaScreen™ Eu Kinase Binding Assay. 5 nM His-tagged recombinant human TrkA (6HIS tagged cytoplasmic domain from Invitrogen, Catalog No. PV3144) was incubated with 4 nM Alexa-Fluor® Tracer 236 (Invitrogen Cat. No. PV5592), 2 nM biotinylated anti-His (Invitrogen Cat. No. PV6090), and 2 nM europium-labeled Streptavidin (Invitrogen Cat. No. PV5899), in buffer (25 mM MOPS, pH 7.5, 5 mM MgCl2, 0.005% Triton X-100). Three fold serial dilutions of compounds of the invention in DMSO were added to a final percentage of 2% DMSO. After 60-minute incubation at 22° C., the reaction was measured using the EnVision multimode plate reader (PerkinElmer) via TR-FRET dual wavelength detection at […]. The percent of control was calculated using a ratiometric emission factor. The IC50 values were determined by fitting a four parameter model to the percent of control data.
Table A provides averaged IC50 values for compounds of the invention when tested in the assay of Example A, where A represents an averaged IC50 value <100 nM; and B represents an averaged IC50 value from 100 to 1,000 nM.

T1 sequence (P04629 440-796 limits assumed): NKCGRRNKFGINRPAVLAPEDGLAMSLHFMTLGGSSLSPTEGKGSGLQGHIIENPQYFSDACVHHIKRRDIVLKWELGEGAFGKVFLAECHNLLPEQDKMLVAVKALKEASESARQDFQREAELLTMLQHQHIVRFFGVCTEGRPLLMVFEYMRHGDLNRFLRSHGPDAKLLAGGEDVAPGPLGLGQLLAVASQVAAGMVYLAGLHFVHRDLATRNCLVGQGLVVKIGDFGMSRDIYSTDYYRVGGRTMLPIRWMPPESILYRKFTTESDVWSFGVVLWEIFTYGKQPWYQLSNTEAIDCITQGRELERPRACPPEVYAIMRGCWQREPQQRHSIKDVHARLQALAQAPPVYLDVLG

| IC50 [nM] | Compound |
| --- | --- |
| < 100 | O=C(Nc1c2c(nn1-c1ccccc1)CCCC2)Nc1c(-c2ccccc2)nc2c(C(F)(F)F)cccn12 [Example 20, 1-(2-phenyl-4,5,6,7-tetrahydro-2H-indazol-3-yl)-3-(2-phenyl-8-(trifluoromethyl)imidazo[1,2-a]pyridin-3-yl)urea] |
| < 100 | CCOc1nn(-c2ccccc2)c(NC(=O)Nc2c(-c3ccccc3)nc3c(Br)cccn23)c1C [Example 15, 1-(8-bromo-2-phenylimidazo[1,2-a]pyridin-3-yl)-3-(3-ethoxy-4-methyl-1-phenyl-1H-pyrazol-5-yl)urea] |
| < 100 | Cn1cc(-c2nn(-c3ccccc3)c(NC(=O)Nc3c(-c4ccccc4)nc4c(C(F)(F)F)cccn34)c2Cl)cn1 [Example 34, 1-(4-chloro-1′-methyl-1-phenyl-1H,1′H-[3,4′-bipyrazol]-5-yl)-3-(2-phenyl-8-(trifluoromethyl)imidazo[1,2-a]pyridin-3-yl)urea] |
| < 100 | Cc1c(OC[C@H](O)CO)nn(-c2ccccc2)c1NC(=O)Nc1c(-c2ccccc2)nc2c(C(F)(F)F)cccn12 [Example 28, (R)-1-(3-(2,3-dihydroxypropoxy)-4-methyl-1-phenyl-1H-pyrazol-5-yl)-3-(2-phenyl-8-(trifluoromethyl)imidazo[1,2-a]pyridin-3-yl)urea] |
| < 100 | CCOc1nn(-c2ccccc2)c(NC(=O)Nc2c(-c3ccccc3)nc3c(C)cccn23)c1C [Example 7, 1-(3-ethoxy-4-methyl-1-phenyl-1H-pyrazol-5-yl)-3-(8-methyl-2-phenylimidazo[1,2-a]pyridin-3-yl)urea] |
| < 100 | Cc1cccn2c(NC(=O)Nc3c4c(nn3-c3ccccc3)COC4)c(-c3ccccc3)nc12 [Example 14, 1-(8-methyl-2-phenylimidazo[1,2-a]pyridin-3-yl)-3-(2-phenyl-4,6-dihydro-2H-furo[3,4-c]pyrazol-3-yl)urea] |
| < 100 | Cc1c(OCC(CO)CO)nn(-c2ccccc2)c1NC(=O)Nc1c(-c2ccccc2)nc2c(C(F)(F)F)cccn12 [Example 25, 1-(3-(3-hydroxy-2-(hydroxymethyl)propoxy)-4-methyl-1-phenyl-1H-pyrazol-5-yl)-3-(2-phenyl-8-(trifluoromethyl)imidazo[1,2-a]pyridin-3-yl)urea] |
| 100 to 1000 | CCOc1nn(-c2ccccc2)c(NC(=O)Nc2c(-c3ccc(OC)cc3)nc3c(C)cccn23)c1C [Example 23, 1-(3-ethoxy-4-methyl-1-phenyl-1H-pyrazol-5-yl)-3-(2-(4-methoxyphenyl)-8-methylimidazo[1,2-a]pyridin-3-yl)urea] |
| 100 to 1000 | CCOc1nn(-c2ccccc2)c(NC(=O)Nc2c(-c3ccccc3)nc3c(F)cccn23)c1C [Example 6, 1-(3-ethoxy-4-methyl-1-phenyl-1H-pyrazol-5-yl)-3-(8-fluoro-2-phenylimidazo[1,2-a]pyridin-3-yl)urea] |
